Values quoted from earlier work as cited in US20260191834A1, “PHARMACEUTICAL COMBINATION FOR THE TREATMENT OF MULTIPLE MYELOMA, MONOCLONAL GAMMOPATHY OF UNDETERMINED SIGNIFICANCE, AND SMOLDERING MULTIPLE MYELOMA” (priority 2022, published 2026).

For `CC[C@H]1OC(=O)[C@H](C)[C@@H](O[C@H]2C[C@@](C)(OC)[C@@H](O)[C@H](C)O2)[C@H](C)[C@@H](O[C@@H]2O[C@H](C)C[C@H](N(C)C)[C@H]2O)[C@](C)(OC)C[C@@H](C)C(=O)[C@H](C)[C@@H](O)[C@]1(C)O` [clarithromycin, Clarithromycin], the “efficacy for treating multiple myeloma” value (as an add-on to chemotherapies) is given as “reported and confirmed” and the “efficacy for Multiple Myeloma” value (given alone as a single treatment) is given as “no efficacy”.
